Patent US20040151618A1, “Method of increasing the conductivity of water and uses therefor” (priority 2002, published 2004)

Assays:
[1] = Electrical conductivity of tap water with varying concentrations of sodium benzoate; type: physicochemical; details: 10% sodium benzoate plus ingredient that improves adhesion
Procedure: Tests were conducted to measure the electrical conductivity of tap water with varying concentrations of sodium benzoate. In these tests the conductivity has been measured in micromho/cm. One micromho/cm (UMHO/CM) equals one microsiemens/cm (US/CM). In other words a micromho is the same as a microsiemen.
In preparing a 1% solution of applicants solution 37.84 grams of sodium benzoate were dissolved in one gallon of tap water which weighs 3,784 grams. […] The conductivity of the various samples of applicant's invention that were subjected to these tests had conductivities ranging from 635 to 34,500 UMHO/CM. […] For solutions of other strengths, proportional amounts of sodium benzoate were added to a gallon of water. This invention is concerned with concentrations of sodium benzoate in the range of about 0.1% and greater. The current test results have been limited to a maximum concentration of about 10%.

mold [2] = test: Mold on cornstarch immersed in solution (Example 3); type: cell-based; details: cornstarch in water with 1% sodium benzoate, four weeks
mold [3] = test: Mold on dry dog food sprayed with solution (Example 4); type: cell-based; details: dry dog food sprayed with water with 1% sodium benzoate, three months
mold [4] = test: Mold and odor on treated wet lap pulp (Example 5); type: cell-based; details: wet lap pulp treated with water with 1% sodium benzoate, almost a year
Source text: A like portion of wet lap pulp from the same batch as the above wet lap pulp was not treated (wet lap pulp is moist and contains tap water) but was isolated for observation and comparison.

mold [5] = test: Mold in opened cranberry-raspberry drink (Example 6); type: cell-based; details: drink with about 1.9% sodium benzoate, three weeks
Procedure: A commercially available 16 ounce bottle of cranberry-raspberry drink was opened and one ounce of water having a 30% concentrations of sodium benzoate was added to the contents of the bottle. The resulting cranberry-raspberry drink thus had about a 1.9% concentration of sodium benzoate. A second bottle of the same commercially available drink was opened but not treated in any way.

[6] = system: growing plant having green leaves and small white flowers; test: Plant growth retarder: isolated growing plant sprayed (Example 7); type: in vivo; details: sprayed with water with 10% sodium benzoate, after six hours
Source text: A growing plant having green leaves and small white flowers was isolated from other plants of the same type. the isolated plant was sprayed with water having a 10% concentration of sodium benzoate. The other plants were not treated.

[7] = system: potted plants each having green leaves and violet colored flowers; test: Plant growth retarder: potted plant watered (Example 8); type: in vivo; details: watered with water with 10% sodium benzoate, after three days
Source text: Two similar potted plants each having green leaves and violet colored flowers were obtained for this example. One of the potted plants was watered with tap water and at the same time the other potted plant was watered with water that contained a 10% concentration of sodium benzoate.

grass = test: Plant growth retarder: patch of grass sprayed (Example 9); type: in vivo; details: sprayed with water with 10% by weight sodium benzoate, 24 hours
Source text: A patch of grass about two feet in diameter was sprayed with water having a 10% concentration by weight of sodium benzoate . At the time that the water having the 10% concentration of sodium benzoate was sprayed on this patch of grass the sprayed patch as well as the surrounding grass areas were green and healthy looking.

[8] = system: large potted plants having green leaves and red flowers; test: Plant growth retarder: large potted plants watered (Example 10); type: in vivo; details: watered with water with 10% by weight sodium benzoate
Source text: Three large potted plants having green leaves and red flowers, each plant was about 3 feet tall, were utilized for this EXAMPLE. The three plants were aligned adjacent to each other in a sunny area. The large potted plant to the left was watered with tap water and the plants in the center and to the right were watered with water having a 10% concentration by weight of sodium benzoate. Two days after watering these three large potted plants, the plant to the left retained its green leaves and red flowers. However, the large plant in the center and the one to the right had undergone change. […] Four days after watering the plants the large plant in the center and the one to the right had undergone further change. […] The plant to the left retained its green leaves and red flowers.

[9] = system: psychrotrophic microorganisms; test: Count of psychrotrophic microorganisms in minced cod fish fillets stored at 1-2° C. (Plate Count Agar, pour-plate); type: cell-based; parameters: Count of psychrotrophic microorganisms in sample with 0.1% Sodium Benzoate solution: unit not given here; details: for Count of psychrotrophic microorganisms in sample with 1% Sodium Benzoate solution: Example 11; for Count of psychrotrophic microorganisms in sample with 0.1% Sodium Benzoate solution: Example 12
Procedure: Cod fish fillets which were frozen at sea were thawed and minced. The minced fillets were divided into two 200 gram portions. To one portion, 20 milliliters of sterile, deionized water was added (10%) and to the other 20 milliliters of the sodium benzoate solution of this invention containing 1% benzoate was added. Both portions were stirred and then placed at 1-2° C. for storage. Samples were taken 2 hours, 7 days and 14 days after mixing. Counts of psychrothrophic microorganisms was done on Plate Count Agar with 0.5% NaCl added by the pour-plate technique. Plated were incubated at 22° C. for 3 days prior to counting colonies. When a nutrient agar-type medium is incubated, using the streak-plate or pour-plate method, cells are individually separated. In incubation, individual cells reproduce rapidly to generate a visible colony of cells, each colony being a pure sample of a single kind of microorganism.
In the above example, a 1% sodium benzoate solution was used, which is considered to be a stronger than acceptable for a food product, and thus a further tests were performed. In these second tests cod fish fillets which were frozen at sea were thawed and minced. The minced fillets were divided into two 200 gram portions. To one portion, 2 milliliters of sterile, deionized water was added and to the other […] of the sodium benzoate solution of this invention containing 0.1% benzoate was added. As a result in this test the other portion contained only 10% of the amount of benzoate as was in EXAMPLE 11. In other words EXAMPLE 11 was a 1% sodium benzoate solution and EXAMPLE 12 is a 0.1% sodium benzoate solution. Both portions were stirred and then placed at 1-2° C. for storage. Samples were taken 2 hours, 7 days, 14 days and 18 after mixing. Counts of psychrothrophic microorganisms was done on Plate Count Agar with 0.5% NaCI added by the pour-plate technique. Plated were incubated at 22° C. for 3 days prior to counting colonies.

[10] = Iron count of applicant after daily drinking of the solution; type: in vivo, human; details: daily drinking of 0.1% solution blended in fruit juice
Source text: Furthermore, as a result of the higher conductivity of the sodium benzoate solution its electrical resistance is reduced which stabilizes organic colors and prevents their reversion. […] Also, in the pulp and paper industry the brightness of pulp is enhanced which is a result of applicant's solution impeding the deposition of iron. Also, impeding the iron content in drinking water can help to prevent an iron overload problem in humans and animals. Iron overload can result in cellular degradation that is similar to the rusting of a nail. Applicant's sodium benzoate solution can be used to prevent oxygen free radical degradation in humans and animals. Excess iron in human is very dangerous. Human consumption of applicant's solution could prevent hemochromatosis and the need for phlebotomy.

[11] = 0 days at 1-2° Centigrade (sample 2 hours after mixing)

## O=C([O-])c1ccccc1.[Na+] [Sodium Benzoate, sodium benzoate]
[1]
  Conductivity of 10% solution with coating additive compared with 10% solution without: substantially the same
Mold [2]
  No Mold: no evidence of mold
Mold [3]
  No Mold: no evidence of mold
Mold [4]
  No Mold: no evidence of mold or odor
Mold [5]
  No Mold: no evidence of mold
[6]
  Growth Stunned: shriveled and dried up
[7]
  Growth Stunned: weathered and dried up
grass
  Growth Stunned: appeared straw like and there was no longer any green appearing
[8]; four days after watering
  Growth Stunned: remains of the flowers were now brown and only a few brown leaves remained on the branches
[8]; two days after watering
  Appearance of plants: flowers were no longer red and instead appeared pink and white and the leaves were drooping and were a much lighter shade of green
[9]; 0.1% sodium benzoate solution
  Shelf life of fresh seafood maintained at 1-2° C.: at least 14 days
[9]; 1% sodium benzoate solution
  Shelf life of fresh seafood maintained at 1-2° C.: at least 14 days
[9]; [11]
  Count of psychrotrophic microorganisms in sample with 1% Sodium Benzoate solution: 5
  Count of psychrotrophic microorganisms in sample with 0.1% Sodium Benzoate solution: 4.21
[9]; 7 days at 1-2° Centigrade
  Count of psychrotrophic microorganisms in sample with 1% Sodium Benzoate solution: 4.8
  Count of psychrotrophic microorganisms in sample with 0.1% Sodium Benzoate solution: 4.79
[9]; 14 days at 1-2° Centigrade
  Count of psychrotrophic microorganisms in sample with 1% Sodium Benzoate solution: 5.2
  Count of psychrotrophic microorganisms in sample with 0.1% Sodium Benzoate solution: 6.17
[9]; 18 days at 1-2° Centigrade
  Count of psychrotrophic microorganisms in sample with 0.1% Sodium Benzoate solution: 8.09
[10]
  Iron count: reduced to normal levels
